Experiments:
Type in all cases: biochemical
[1] = target: T1, HIV-2 IN E92Q/Y143C (Human immunodeficiency virus type 2 subtype B, UniProt Q89928, E1260Q/I1218V/I1301V/I1372V/M1455R/N1185G/N1438H/R1202K/R1392Q/T1348V/T1383A/V1460M/Y1311C); assay: strand transfer inhibition, site-directed mutant in N1 background; details: E92Q/Y143C double mutant in N1 background; 200 nM IN
T1 construct: His-tag (pET-15b) (N); made in house; host or cells: Escherichia coli BL21-CodonPlus (DE3)-RIPL
T1 sequence (Q89928 with tags, fused parts or gaps N1185G/R1202K/I1218V/E1260Q/I1301V/Y1311C/T1348V/I1372V/T1383A/R1392Q/N1438H/M1455R/V1460M): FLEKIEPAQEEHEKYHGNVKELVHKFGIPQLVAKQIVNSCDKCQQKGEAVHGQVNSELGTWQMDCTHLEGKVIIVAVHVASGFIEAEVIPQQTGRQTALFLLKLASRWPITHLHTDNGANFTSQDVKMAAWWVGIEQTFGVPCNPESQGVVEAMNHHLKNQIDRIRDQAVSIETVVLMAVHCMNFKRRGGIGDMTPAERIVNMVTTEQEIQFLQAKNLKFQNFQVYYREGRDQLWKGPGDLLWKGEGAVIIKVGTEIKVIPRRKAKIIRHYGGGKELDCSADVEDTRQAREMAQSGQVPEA
Method: (§1) Activity is expressed as a % of control without drug. Experiments were performed two times.
Primer 1: N1, N2, T1, T2, 5'-[…]-3'; N3, 5'-[…] […]-3'; T3-T7, 5'-[…]-3'. Primers 2: N1, 5'-[…]-3'; N2, 5'-[…] […]-3'; N3, 5'-[…] C-3'; T1, T2, 5'-[…]-3'; T3-T7, 5'-GGATC […] -3'.
(§2) The HIV-2 ODN substrate sequences were: UA: 5'-[…]-3'; U5B: 5'-[…]-3'; U5B-2: 5'-[…] […]-3'.

[2] = tested on: HIV-2 IN E92A/T97A/N155H (T1); assay: strand transfer inhibition, IN from clinical isolate T1; details: clinical isolate T1, N155H with substitutions at positions 92 and 97, 200 nM IN
Method: as §1, §2

[3] = target: T2, HIV-2 N3 IN (Human immunodeficiency virus type 2 subtype B, UniProt Q89928, A1457T/D1293E/D1331N/F1194Y/I1218V/I1301V/I1428V/K1172N/M1455R/N1185G/N1438H/Q1389K/R1202K/R1392Q/T1348A/T1383A); assay: strand transfer inhibition, IN from clinical isolate N3; details: IN from RAL-naive patient N3; 200 nM IN; 37°C; Mg2+
T2 construct: His-tag (pET-15b) (N); made in house; host or cells: Escherichia coli BL21-CodonPlus (DE3)-RIPL
T2 sequence (Q89928 1169-1461 K1172N/N1185G/F1194Y/R1202K/I1218V/D1293E/I1301V/D1331N/T1348A/T1383A/Q1389K/R1392Q/I1428V/N1438H/M1455R/A1457T): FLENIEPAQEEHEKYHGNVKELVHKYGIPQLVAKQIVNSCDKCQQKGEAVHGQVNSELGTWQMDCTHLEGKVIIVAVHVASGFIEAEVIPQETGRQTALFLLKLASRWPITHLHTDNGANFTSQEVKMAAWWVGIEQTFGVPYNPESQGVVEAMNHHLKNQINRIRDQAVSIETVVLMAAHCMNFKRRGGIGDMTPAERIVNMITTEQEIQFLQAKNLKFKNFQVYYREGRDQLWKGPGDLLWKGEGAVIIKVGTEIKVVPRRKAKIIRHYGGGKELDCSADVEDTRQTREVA
Method: The ST reaction was performed using a ^32P-labeled oligonucleotide mimicking the preprocessed substrate. Drug concentrations are indicated above each lane. […] Activity is expressed as a % of control without drug. Experiments were repeated two times.
as §2

[4] = target: T3, HIV-2 IN G140S/Q148R (T3) (Human immunodeficiency virus type 2 subtype A, UniProt P04584, A1212T/E1378D/G1311S/I1304V/I1351V/I1372T/M1463V/Q1319R/R1205K/R1395Q/S1188G/S1210T/T1231V/V1190I); assay: strand transfer inhibition, IN from clinical isolate T3; details: clinical isolate T3, G140S/Q148R double mutant; IC50 not reached at concentrations up to 1 μM
T3 construct: His-tag (pET-15b) (N); made in house; host or cells: Escherichia coli BL21-CodonPlus (DE3)-RIPL
T3 sequence (P04584 1172-1464 S1188G/V1190I/R1205K/S1210T/A1212T/T1231V/I1304V/G1311S/Q1319R/I1351V/I1372T/E1378D/R1395Q/M1463V): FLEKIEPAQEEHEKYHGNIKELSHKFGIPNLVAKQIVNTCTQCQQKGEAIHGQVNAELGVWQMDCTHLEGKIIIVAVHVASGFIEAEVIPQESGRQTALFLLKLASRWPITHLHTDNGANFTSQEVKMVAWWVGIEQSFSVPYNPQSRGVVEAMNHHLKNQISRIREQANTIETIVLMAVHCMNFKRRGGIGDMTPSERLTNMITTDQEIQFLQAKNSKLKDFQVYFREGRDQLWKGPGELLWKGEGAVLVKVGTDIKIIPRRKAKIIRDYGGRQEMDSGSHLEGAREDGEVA
Method: as §1, §2

[5] = target: T4, HIV-2 IN (N1 to N3) (Human immunodeficiency virus type 2 subtype B, UniProt Q89928, I1218V/I1301V/I1372V/M1455R/N1185G/N1438H/R1202K/R1392Q/T1348V/T1383A/V1460M); assay: 3'-processing inhibition, INs from clinical isolates N1 to N3; details: at concentrations up to 1 μM; data not shown
T4 construct: His-tag (pET-15b) (N); made in house; host or cells: Escherichia coli BL21-CodonPlus (DE3)-RIPL
T4 sequence (Q89928 1169-1464 N1185G/R1202K/I1218V/I1301V/T1348V/I1372V/T1383A/R1392Q/N1438H/M1455R/V1460M limits assumed): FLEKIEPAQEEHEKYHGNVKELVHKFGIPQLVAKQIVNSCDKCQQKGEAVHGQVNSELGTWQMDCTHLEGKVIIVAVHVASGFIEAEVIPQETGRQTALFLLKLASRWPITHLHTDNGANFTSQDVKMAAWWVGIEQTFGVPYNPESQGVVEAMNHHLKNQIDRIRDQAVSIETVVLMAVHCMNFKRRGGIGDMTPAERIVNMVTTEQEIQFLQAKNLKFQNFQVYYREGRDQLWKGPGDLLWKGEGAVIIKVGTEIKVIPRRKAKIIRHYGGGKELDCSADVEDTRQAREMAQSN
Method: The activity of wild-type and mutated INs was determined in vitro, as previously described. Briefly, oligonucleotides (ODN) mimicking the end of the U5 long terminal repeat of the viral genome were radiolabeled with T4 polynucleotide kinase (Biolabs, Ipswich, USA) and [γ-^32P] ATP (3,000 Ci/mmol) (Amersham, GE Healthcare, USA), then purified on a Sephadex G-10 column (GE Healthcare, USA). Double-stranded ODNs were obtained by mixing equimolar amounts of complementary strands in the presence of 100 mM NaCl.

For `Cc1nnc(C(=O)NC(C)(C)c2nc(C(=O)NCc3ccc(F)cc3)c(O)c(=O)n2C)o1` [RAL, raltegravir], the IC50 [1] was 370 nM, the “factor of increase of IC50 versus wild-type N1 IN” value [2] was “about 50” and the IC50 [3] was 48 nM. For the same compound, the IC50 [4] was over 1000 nM and the “effect on 3' processing in vitro” value [5] was “no significant effect”.

Source: PMC3170264 (Retrovirology, 2011)
